# Measured values as given in patent US11789013B2, “Componential analyzer, drug efficacy analyzer, and analysis method” (Hitachi High-Tech Corporation, priority 2013, dated 2023).
# System: hepatocytes
# Test: Drug distribution / efflux fraction analysis in cultured hepatocytes (basolateral efflux, biliary excretion, intracellular fraction)
# Assay type: in vitro ADME, rat
# Details: for ratio of the amount of drug excreted into the bile duct to the total amount of drug taken up into the cells (BiRD), (B1−B2)/(C1+C2): pattern 1, sequences 1 (EGTA disrupted) and 2 (maintained), 37° C.; for ratio of the amount of drug excreted into the bile duct to the total amount of drug taken up into the cells (BiRD), (B1−B2)/(C1+C2) / Sup fraction (first fraction of the basolateral efflux, S1), index for tendency to remain or not to remain in the cells: 30 minutes; for ratio of the amount of drug excreted into the bile duct to the total amount of drug taken up into the cells (BiRD), (B1−B2)/(C1+C2) / ratio of the amount of drug excreted via transporter to the amount of drug excreted to the basolateral side (RexEMTP), (B2-B3)/B2: fluorescence; for ratio of the amount of drug excreted via transporter to the amount of drug excreted to the basolateral side (RexEMTP), (B2-B3)/B2: pattern 1, step 5, 30 minutes, sequences 2 (37° C.) and 3 (4° C.); for Sup fraction (first fraction of the basolateral efflux, S1), index for tendency to remain or not to remain in the cells: pattern 2 (sum of steps 4, 5, 6 = 100%), step 4, 37° C., in %
# Method: Hepatocytes were prepared by in situ collagenase perfusion method. The details are as follows. A rat (5-6 week-old) is anesthetized with pentobarbital and laparotomy is performed to insert a catheter into the portal vein and inject the preperfusion solution (a Ca^2+ and Mg^2+ free Hanks' solution containing EGTA). After confirming that blood is sufficiently removed from the liver, the perfusion is stopped. The perfusate is changed into a collagenase solution to conduct perfusion. In this embodiment, the perfusion is conducted with a Hanks' solution containing 0.05% collagenase, but the collagenase solution is not limited to this. Once confirmed that the tissue between the cells was digested by collagenase, the perfusion is stopped. The liver is excised, sliced in a cooled Hanks' solution, and separated into cells by pipetting. Damaged hepatocytes are removed by centrifugation at 500 G for 5 minutes with an isotonic Percoll solution. The viability of the resultant hepatocytes is determined by the trypan blue-exclusion test. Hepatocytes having a viability of 85% or more are used for culture. Here, hepatocytes having a viability of 85% or more are used for culture, but such culture is, needless to say, not necessarily limited to the condition. In addition, the preparation of hepatocytes is not necessarily limited to that by in situ collagenase perfusion method. The hepatocytes to be used are not limited to those derived from a rat and the strain of rat is not limited. This embodiment uses hepatocytes, but cells are not limited to this.
# Hepatocytes prepared by in situ collagenase perfusion method as described above are suspended in a medium. The hepatocytes are suspended at a density of 5×10^5 cells/mL in a medium and plated onto a commercially available culture dish coated with collagen. The density upon plating, the medium, and the culture plate 001 are not particularly limited. The culture plate is illustrated in FIG. 1. A 24 well culture plate having 24 culture regions (wells, 002) is here illustrated, but the culture plate is not limited to this as long as it can contain predetermined cells and containers in other shapes may be used. After plating, culture is started under conditions of 5% CO2 and 37° C. using a CO2 incubator. After 18 hours or more, the first medium change is conducted. Although the medium to be used for culture 18 hours after the plating is not particularly limited, in this embodiment, the medium (FCS−), a medium in which FCS is removed from the medium (10% FCS+), supplemented with Matrigel is used. After this, medium change with the medium (FCS−) is conducted every 24 hours. As described later, testing is conducted under three different conditions (sequences 1, 2, and 3: described in detail in step 5) in step 5, three independent culture plates with the same conditions are prepared at this point. In steps 0 to 4 and step 5, the same testing operations are conducted in all the three sequences.
# The culture supernatant of the cells cultured in step 0 for 4 days is removed and 400 μL of Hanks' solution is added as a buffer. The cells are incubated at 37° C. for 10 minutes (FIG. 2, step 1). The type and amount of buffer are not particularly limited.
# The buffer is removed, and then 200 μL of 10 μM CDF (a fluorescent reagent) is added to the well. The plate is incubated at 37° C. for 30 minutes and then maintained at 4° C. for 5 minutes (FIG. 2, step 2). The type, concentration, and amount of the reagent are not particularly limited. CDF emits fluorescence and can be therefore easily quantified by a plate reader as a model reagent. The amount of administration, 200 μL, was chosen so that the cells as a whole in the well would be immersed in the reagent. The concentration of CDF may be a concentration conventionally used for a fluorescence assay of cells. This concentration is preferably applied as an amount of the reagent for the detection with a plate reader. […]
Substance,"ratio of the amount of drug excreted into the bile duct to the total amount of drug taken up into the cells (BiRD), (B1−B2)/(C1+C2)","ratio of the amount of drug excreted via transporter to the amount of drug excreted to the basolateral side (RexEMTP), (B2-B3)/B2","Sup fraction (first fraction of the basolateral efflux, S1), index for tendency to remain or not to remain in the cells"
CDF,18.58,41.08,70.82
Rhodamine123,4.92,52.52,39.29
